14 compounds from ChEMBL document CHEMBL1155458, “Synthesis, inhibitory activity of cholinesterases, and neuroprotective profile of novel 1,8-naphthyridine derivatives” (J Med Chem, 2010) can be followed below.

The target in data set [1] is Acetylcholinesterase (Electrophorus electricus, UniProt O42275).
Description: Inhibition of electric eel AChE by Ellman's method
For data set [2], the system named is SH-SY5Y. Briefly: Cytotoxicity against human SH-SY5Y cells assessed as LDH release at 1 uM after 24 hrs by spectrophotometry (reference value: 17.7%). Type of data set: cell-based. In general terms: LDH leaks from cells whose membrane has failed.
In data set [3] the target is T1, Acetylcholinesterase (Homo sapiens, UniProt P22303).
Description: Inhibition of AChE in human erythrocytes by Ellman's method
In a further data set the target is Cholinesterase (Equus caballus, UniProt P81908).
Data set [4] deals with T2, Acetylcholinesterase (Bos taurus) (UniProt P23795).
T2 sequence (whole entry): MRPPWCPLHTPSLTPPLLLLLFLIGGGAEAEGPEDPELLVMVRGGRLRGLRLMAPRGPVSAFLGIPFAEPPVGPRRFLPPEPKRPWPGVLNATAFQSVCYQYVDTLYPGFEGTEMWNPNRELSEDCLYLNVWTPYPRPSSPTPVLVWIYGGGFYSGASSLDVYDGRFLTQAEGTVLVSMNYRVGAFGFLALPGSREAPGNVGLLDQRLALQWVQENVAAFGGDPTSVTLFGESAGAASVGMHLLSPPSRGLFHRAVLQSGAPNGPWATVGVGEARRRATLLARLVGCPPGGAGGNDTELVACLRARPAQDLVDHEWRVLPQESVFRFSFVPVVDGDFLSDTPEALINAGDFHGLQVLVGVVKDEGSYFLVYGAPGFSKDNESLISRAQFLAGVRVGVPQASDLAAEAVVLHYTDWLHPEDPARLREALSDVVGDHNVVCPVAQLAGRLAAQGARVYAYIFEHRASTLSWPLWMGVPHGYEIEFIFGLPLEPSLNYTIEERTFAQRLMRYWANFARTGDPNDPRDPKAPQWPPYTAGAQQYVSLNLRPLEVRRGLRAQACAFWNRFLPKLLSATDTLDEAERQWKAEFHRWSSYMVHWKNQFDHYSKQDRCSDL
Kind of data set: Displacement of propidium iodide from AChE in bovine erythrocytes at 10 uM after 15 mins by fluorescence plate reader. Type of data set: cell-based.

Data set [5] concerns the target T3, Acetylcholinesterase (Bos taurus, UniProt P23795).
T3 sequence (P23795 whole entry): T2 sequence (whole entry)
Briefly: biochemical.
Description: Displacement of propidium iodide from AChE in bovine erythrocytes after 15 mins by fluorescence plate reader

Data set [6] concerns SH-SY5Y. Kind of data set: Neuroprotective activity in human SH-SY5Y cells assessed as protection against okadaic acid-induced cell death at 1 uM after 24 hrs by MTT assay. Type of data set: functional.
Data set [7] relates to SH-SY5Y. Kind of data set: Neuroprotective activity in human SH-SY5Y cells assessed as protection against rotenone/oligomycin A-induced cell death at 1 uM after 24 hrs by LDH release assay. The data set is classed as functional.
Data set [8] deals with T2, Acetylcholinesterase (Bos taurus). The following applies: 1 mM.
Description: Displacement of propidium iodide from AChE in bovine erythrocytes at 1 mM after 15 mins by fluorescence plate reader
For data set [9], the species on record is Rattus norvegicus. Kind of data set: Prevention of okadaic acid-induced inhibition of PP2A in rat brain cortex assessed as increase in inorganic phosphorus release at 10 uM after 1 hr by malachite green assay relative to control. Type of data set: tissue-based. Set-up: scale not given: the % may be the effect or the level left.
The subject of data set [10] is Hippocampus. Kind of data set: Neuroprotective activity in isolated rat brain hippocampal slices assessed as protection against oxygen and glucose deprivation-induced cell death after 24 hrs by MTT assay. Type of data set: functional, tissue-based. A general note: Tetrazolium dyes change colour on reduction, which living cells bring about.
Data set [11] deals with SH-SY5Y. Briefly: Neuroprotective activity in human SH-SY5Y cells assessed as protection against amyloid beta(1-42)-induced cell death at 1 uM after 24 hrs by MTT assay. The data set is classed as functional.
Data set [12] has as its target T1, Acetylcholinesterase. Briefly: Inhibition of AChE (unknown orign) by Lineweaver-Burke plot.
In data set [13] the test system is Hippocampus. Kind of data set: Neuroprotective activity in isolated rat brain hippocampal slices assessed as protection against oxygen and glucose deprivation-induced cell death at 30 uM after 24 hrs by MTT assay. Type of data set: functional.
For data set [14], the system named is SH-SY5Y. Briefly: Neuroprotective activity in human SH-SY5Y cells assessed as protection against amyloid beta(1-42)-induced cell death at 10 uM after 24 hrs by MTT assay. The data set is classed as functional.
The species named for data set [15] is Rattus norvegicus. Kind of data set: Prevention of okadaic acid-induced inhibition of PP2A in rat brain cortex assessed as increase in inorganic phosphorus release after 1 hr by malachite green assay relative to control. Type of data set: tissue-based.
Data set [16] deals with SH-SY5Y. Kind of data set: Neuroprotective activity in human SH-SY5Y cells assessed as protection against amyloid beta(1-42)-induced cell death after 24 hrs by MTT assay. The data set is classed as functional, cell-based.
For data set [17], the species on record is Rattus norvegicus. Kind of data set: Prevention of okadaic acid-induced inhibition of PP2A in rat brain cortex assessed as increase in inorganic phosphorus release at 1 uM after 1 hr by malachite green assay relative to control. The data set is classed as tissue-based. Set-up: scale not given: the % may be the effect or the level left.

Chain of Cholinesterase (P81908 whole entry): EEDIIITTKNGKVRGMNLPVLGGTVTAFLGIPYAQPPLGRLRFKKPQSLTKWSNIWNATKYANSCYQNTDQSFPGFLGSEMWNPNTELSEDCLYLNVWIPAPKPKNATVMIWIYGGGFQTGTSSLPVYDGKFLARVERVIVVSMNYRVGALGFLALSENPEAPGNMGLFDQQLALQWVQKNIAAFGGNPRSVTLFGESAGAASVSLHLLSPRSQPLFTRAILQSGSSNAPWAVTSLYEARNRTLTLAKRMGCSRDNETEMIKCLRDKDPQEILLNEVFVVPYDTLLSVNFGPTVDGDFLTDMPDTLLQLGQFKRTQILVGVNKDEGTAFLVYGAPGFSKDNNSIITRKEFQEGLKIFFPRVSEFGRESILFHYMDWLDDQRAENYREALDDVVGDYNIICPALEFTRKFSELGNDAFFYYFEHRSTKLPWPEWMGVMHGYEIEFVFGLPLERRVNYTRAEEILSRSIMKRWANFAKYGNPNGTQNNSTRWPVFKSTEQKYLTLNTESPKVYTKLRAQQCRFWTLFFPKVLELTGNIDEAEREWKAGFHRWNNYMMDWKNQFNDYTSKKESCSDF
Chain of Acetylcholinesterase (Electrophorus electricus, UniProt O42275) (O42275 whole entry): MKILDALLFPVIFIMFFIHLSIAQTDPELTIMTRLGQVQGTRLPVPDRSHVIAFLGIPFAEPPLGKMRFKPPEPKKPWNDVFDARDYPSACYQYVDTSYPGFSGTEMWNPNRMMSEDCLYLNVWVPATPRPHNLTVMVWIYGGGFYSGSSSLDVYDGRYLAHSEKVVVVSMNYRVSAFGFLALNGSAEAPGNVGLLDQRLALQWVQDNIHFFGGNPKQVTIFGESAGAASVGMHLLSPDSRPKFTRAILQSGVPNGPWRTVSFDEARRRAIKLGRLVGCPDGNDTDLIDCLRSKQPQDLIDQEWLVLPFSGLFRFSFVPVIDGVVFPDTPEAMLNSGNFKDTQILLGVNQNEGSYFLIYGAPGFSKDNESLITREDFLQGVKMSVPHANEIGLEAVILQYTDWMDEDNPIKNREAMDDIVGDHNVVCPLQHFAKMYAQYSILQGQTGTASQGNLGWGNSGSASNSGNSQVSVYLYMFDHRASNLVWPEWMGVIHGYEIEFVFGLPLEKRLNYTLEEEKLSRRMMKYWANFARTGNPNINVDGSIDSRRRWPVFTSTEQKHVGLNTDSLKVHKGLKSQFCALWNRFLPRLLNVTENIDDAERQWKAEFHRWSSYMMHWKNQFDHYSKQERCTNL
T1 sequence (P22303 whole entry): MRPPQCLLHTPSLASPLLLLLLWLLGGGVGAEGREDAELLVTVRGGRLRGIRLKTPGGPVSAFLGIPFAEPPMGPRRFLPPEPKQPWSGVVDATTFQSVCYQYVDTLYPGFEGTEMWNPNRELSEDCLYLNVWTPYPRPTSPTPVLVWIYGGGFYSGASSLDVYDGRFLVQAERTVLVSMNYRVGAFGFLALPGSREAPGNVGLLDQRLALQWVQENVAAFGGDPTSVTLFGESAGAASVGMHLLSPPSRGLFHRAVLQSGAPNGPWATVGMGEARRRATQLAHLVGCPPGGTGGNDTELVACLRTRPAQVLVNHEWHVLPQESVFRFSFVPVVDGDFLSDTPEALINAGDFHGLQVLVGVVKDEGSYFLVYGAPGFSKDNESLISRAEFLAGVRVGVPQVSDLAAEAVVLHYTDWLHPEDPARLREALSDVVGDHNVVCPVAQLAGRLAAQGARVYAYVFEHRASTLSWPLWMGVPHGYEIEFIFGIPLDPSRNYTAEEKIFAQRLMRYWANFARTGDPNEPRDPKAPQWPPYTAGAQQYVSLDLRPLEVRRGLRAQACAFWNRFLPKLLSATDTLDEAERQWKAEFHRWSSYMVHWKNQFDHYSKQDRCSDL

As usually defined, the IC50 is the midpoint of a concentration-inhibition curve. As usually defined, the inhibition is the share of the control response that was lost under treatment. Turning to `CCOC(=O)c1cc2c(N)c3c(nc2nc1C)CCCCCC3`, the IC50 against Acetylcholinesterase [1] worked out at 400 nM; against Acetylcholinesterase [3], 1800 nM; against Cholinesterase it was 5300 nM; against Acetylcholinesterase [5], 400 nM. The figures for the Activity in the data set with SH-SY5Y [2], in the data set on SH-SY5Y [6] and in the data set with SH-SY5Y [7] were 12.7%, 33.8% and 32.6%, respectively. In data set [4], the inhibition is 10%.

As for `CC(=O)N[C@@H](CS)C(=O)O` [ACETYLCYSTEINE], the Activity in the data set with SH-SY5Y [7] is given as 33.4%.

As to `COc1ccc2[nH]cc(CCNC(C)=O)c2c1` [MELATONIN], the Activity in the data set with SH-SY5Y [7] worked out at 33.8%.

In [8], `C=CC[N+](C)(C)c1ccc(CCC(=O)CCc2ccc([N+](C)(C)CC=C)cc2)cc1` came in with an inhibition of 29%.

Consider `COc1ccc2c3c1O[C@H]1C[C@@H](O)C=C[C@@]31CCN(C)C2` [GALANTAMINE], for which the Activity in the data set on SH-SY5Y [6] is on record as 0%.

`CCOC(=O)c1c(C)nc2nc3c(c(N)c2c1-c1ccccc1)CCCC3` displayed an IC50 against Acetylcholinesterase [1] of 800 nM. The Activity with SH-SY5Y [6] stood at 22.1%; with SH-SY5Y [7], 26.8%.

As to `COC(=O)c1cc2c(N)c3c(nc2nc1C)CCCCC3`, the IC50 was 360 nM at Acetylcholinesterase [1], 2000 nM on Acetylcholinesterase [3], 490 nM against Cholinesterase and 360 nM at Acetylcholinesterase [5]. Further, the results for the Activity in the data set with SH-SY5Y [2], in the data set on SH-SY5Y [6] and with SH-SY5Y [7] were 20.4%, 38.7% and 36.1%, respectively. The compound also had an inhibition in data set [4] of 11%.

One may read the EC50 as the concentration that produces a half-maximal response. As usually defined, the Ki is a dissociation constant, usually derived from enzyme kinetics or from competition with a known ligand. On to `CCOC(=O)c1cc2c(N)c3c(nc2nc1C)CCCC3`, for which the Activity is 91% in the data set listed under Rattus norvegicus [9]; “Dose-dependent effect” in the data set with Hippocampus [10]; 20.9% in the data set with SH-SY5Y [2]; 54% in the data set with SH-SY5Y [11]; 65.5% with Hippocampus [13]; 10% in the data set on SH-SY5Y [14]. Besides, the Activity result is “Dose-dependent effect” in the data set filed under Rattus norvegicus [15]; “Dose-dependent effect” with SH-SY5Y [16]; 75% in the data set with SH-SY5Y [6]; 48.4% in the data set with SH-SY5Y [7]; 77% in the data set filed under Rattus norvegicus [17]. Besides, in the data set with Hippocampus [10], the EC50 amounted to 6000 nM. This compound showed a Ki on Acetylcholinesterase [12] of 24 nM. The inhibition in data set [4] was 10%. On Acetylcholinesterase [5], this compound displayed an IC50 of 60 nM.

For `CCOC(=O)c1cc2c(N)c3c(nc2nc1C)CCCCC3`, the IC50 against Acetylcholinesterase [1] is 310 nM; on Acetylcholinesterase [3], 2000 nM; against Cholinesterase, 2100 nM; against Acetylcholinesterase [5] it was 310 nM. In addition, the Activity in the data set with SH-SY5Y [2] is 19.9%; in the data set with SH-SY5Y [6] it was 28.9%; with SH-SY5Y [7], 31.1%. Also, the inhibition in data set [4] amounted to 10%.

Regarding `COC(=O)c1cc2c(N)c3c(nc2nc1C)CCC3`, the IC50 against Acetylcholinesterase [1] was 120 nM; against Acetylcholinesterase [3] it was 1900 nM; on Cholinesterase, 5000 nM; at Acetylcholinesterase [5], 120 nM. The Activity in the data set with SH-SY5Y [2] came to 22.1%; in the data set with SH-SY5Y [6], 36.5%; in the data set on SH-SY5Y [7] it was 37.5%. The inhibition in [4] was determined as 10%.

With `C=C1[C@@H](O)[C@@H]2O[C@]3(CC[C@H](/C=C/[C@@H](C)[C@@H]4CC(C)=C[C@@]5(O[C@H](C[C@@](C)(O)C(=O)O)CC[C@H]5O)O4)O3)CC[C@H]2O[C@@H]1[C@@H](O)C[C@H](C)[C@H]1O[C@@]2(CCCCO2)CC[C@H]1C` [OKADAIC ACID], in the data set with SH-SY5Y [6], the Activity is on record as 80.5%.

On to `COC(=O)c1cc2c(N)c3c(nc2nc1C)CCCC3`, for which the IC50 at Acetylcholinesterase [1] stood at 93 nM; against Acetylcholinesterase [3], 1000 nM; at Cholinesterase, 3400 nM; against Acetylcholinesterase [5], 93 nM. Besides, the Activity with SH-SY5Y [2] was 11.6%; in the data set with SH-SY5Y [6], 44.8%; in the data set on SH-SY5Y [7] it was 25.8%. The compound also gave an inhibition in [4] of 16%.

Take `COC(=O)c1cc2c(N)c3c(nc2nc1C)CCCCCC3`: the 50% inhibitory concentration (IC50) against Acetylcholinesterase [1] was 250 nM; against Acetylcholinesterase [3], 1800 nM; on Cholinesterase it was 4070 nM; on Acetylcholinesterase [5] it was 250 nM. Also, the Activity in the data set on SH-SY5Y [2] was 21.6%; in the data set on SH-SY5Y [6] it was 26.2%; in the data set on SH-SY5Y [7], 42.3%. Besides, the inhibition in data set [4] is 16%.

As to `CCOC(=O)c1cc2c(N)c3c(nc2nc1C)CCC3`, the half-maximal inhibitory concentration (IC50) against Acetylcholinesterase [1] stood at 350 nM; at Acetylcholinesterase [3] it was 2100 nM; against Cholinesterase, 39000 nM; against Acetylcholinesterase [5], 350 nM. Further, the figures for the Activity in the data set on SH-SY5Y [2], in the data set on SH-SY5Y [6] and in the data set on SH-SY5Y [7] were 12.3%, 39.5% and 28.7%, respectively. The inhibition in [4] is 20%.
